Test results as given in the OligoGym collection.
These antisense oligonucleotides have a phosphorothioate backbone; sugars and methylation of C are not fully specified.

Biological target: E2F1
Details: ASO
Note: test concentration or dose not given here.

Row | Sequence | remaining target (mRNA or protein) (fraction of control)
1 | AACCCCACACCCCTCCTCCC | 0.86
2 | AACCTTTAAGACAGAAGTGC | 0.74
3 | AAGCCCTGTCAGAAATCCAG | 0.58
4 | AAGCCTCCCCACCTGGCCTG | 0.28
5 | AAGTCCCGGCCACGGAATTC | 0.87
6 | AAGTGGTAGTCGAGGGCCTC | 0.77
7 | ACACACACATGCTCACACAC | 0.56
8 | ACACCACACAGACTCCTTCC | 0.6
9 | ACCTACGGTCTCCTCAGGGC | 0.21
10 | ACCTCGGCAGCCCAGTTCAG | ≥ 1
11 | AGAAGTCCTCCCGCACATGC | 0.51
12 | AGGAAGCGCTTGGTGGTCAG | 0.72
13 | AGGGACCCCTGCCCTTGCTC | 0.23
14 | AGGTCTCTGATGCCCTCGCC | 0.53
15 | ATGAGCTGGATGCCCTCAAG | 0.56
16 | ATGTCATAGATGCGCCGCTT | 0.77
17 | CACAGGAAAACATCGATCGG | 0.9
18 | CACCCAGGCCTCAGTTCCTT | 0.92
19 | CACCGTCCTACACGCCCAGC | 0.44
20 | CACCTTTTCCTGGATGGCGG | 0.47
21 | CAGCTGCTGCTCGCTCTCCT | 0.63
22 | CAGGCGGCGGCGGCGGCGCG | 0.82
23 | CCACTCACCTCTCCCATCTC | 0.72
24 | CCCATGGCTGTCAGTCAGTC | ≥ 1
25 | CCGCTGCCTGCAAAGTCCCG | 0.92
26 | CCTCGGCGAGGGCTCGATCC | 0.8
27 | CGAGCAGGGCCTCCAGCGCC | 0.9
28 | CGATCGGGCCTTGTTTGCTC | 0.72
29 | CGCAGCTGCGTAGTACAGAT | ≥ 1
30 | CGCGGCGGAGATGATGACGA | ≥ 1

Biological target: TRADD
Details: ASO

Row | Sequence | remaining target (mRNA or protein) (fraction of control)
31 | GCGTAGGCATCCGACAGG | 0.97
32 | GCTCGTACTCGTAGGCCA | ≥ 1
33 | GCTGCCCACCCACTCTTC | ≥ 1
34 | GCTGCTGGGCTAGGATGC | 0.84
35 | GGAACAGAAAAGTCTGGG | 0.93
36 | GGAGGAAGCGGCCACAGG | 0.68
37 | GGATCTTCAGCATCTGCA | ≥ 1
38 | GGATGGGAGAAGGTGAGG | 0.55
39 | GGGAAGGCAATCAACTCT | ≥ 1
40 | GGGCAGGTGGCGGCGGCG | 0.7
41 | GGTATGCGCTGCCCACCC | ≥ 1
42 | GGTGGCGGCGGCGGCGGC | 0.99
43 | GGTTCCCACGCCCGCCAG | ≥ 1
44 | GTCCAGCGAGGACTCCAC | 0.36
45 | GTCCTTCAGGCTCAGCGG | 0.75
46 | GTGCGCGTAGGCATCCGA | ≥ 1
47 | TAGGCCAAGTGGAGTTTC | 0.58
48 | TCACTACAGGCTGACCCT | 0.74
49 | TCAGCCAGTTCTTCATCC | ≥ 1
50 | TCAGGGTCCCGTGGATGG | ≥ 1
51 | TCCACAAACAGGTATGCG | ≥ 1
52 | TCCAGGTTCTCCAAAAGC | 0.46
53 | TCCTCTGCCAGGCTGGTG | ≥ 1
54 | TCTATCAAAGTACCTGAG | ≥ 1
55 | TCTGTTGGTCCTTCAGGC | ≥ 1
56 | TGCGGGTCGCTGCGGTGG | 0.69
57 | TGCGGTGGATCTTCAGCA | ≥ 1
58 | TGCTCGTACAGTCCCTCG | ≥ 1
59 | TGGCTGCACCCCTGGTCT | ≥ 1
60 | TGGGCTAGGATGCAACTC | 0.67

Biological target: AKT3
Details: ASO

Row | Sequence | remaining target (mRNA or protein) (fraction of control)
61 | AAAGGTAACCTCCCACAC | 0.19
62 | AAATGTGTTTGGCTTTGG | ≥ 1
63 | AACCCAACCTTCTTTCAC | ≥ 1
64 | AACCTCCCACACATCATT | 0.22
65 | AACTGTGTCTCATAATTT | ≥ 1
66 | AAGGTAAATCCACATCTT | 0.66
67 | AAGTTTCTCATGGTCCTG | 0.43
68 | AATCCACATCTTGAGGTT | ≥ 1
69 | AATGATTTTGCATCTGAA | 0.94
70 | ACAATTCATTCTCTCCTC | ≥ 1
71 | ACTGAAAAGTTGTTGAGG | ≥ 1
72 | AGAGAAGAAACTGTGTCT | ≥ 1
73 | AGCCTGGATAGCTTCTGT | ≥ 1
74 | AGCTTCTGTCCATTCTTC | ≥ 1
75 | AGTCTACTGCTCGGCCAT | 0.21
76 | ATATACATCTTGCCAGTT | 0.87
77 | ATATATTCTCCCCTCTTC | ≥ 1
78 | ATCAAGAGCCCTGAAAGC | 0.29
79 | ATTATCAATTTGTGAAGT | ≥ 1
80 | ATTCTCTCCTCTTCTTGC | ≥ 1
81 | ATTCTTCATCAAAATATC | ≥ 1
82 | ATTTGGATCCTTTATCAA | ≥ 1
83 | CAACCCCTAGGCCCCACC | 0.16
84 | CATCTTGAGGTTTCTCTT | ≥ 1
85 | CCATCTGTCTTCAAAAGG | ≥ 1
86 | CCCACACATCATTTCATA | 0.25
87 | CTACATGAAATGTTCTCT | ≥ 1

Row | Sequence | remaining target (mRNA or protein) (fraction of control)
88 | CTAGGCCCCACCAGTCTA | 0.17
89 | CTATGAATGAGCCATCTG | 0.99
90 | CTCCACCAAGGCGTTTAT | 0.12
91 | CTCTTCTAAACCCAACCT | 0.79
92 | CTCTTTATATCCTATGAA | ≥ 1
93 | CTGAAGAGAGTGTTCGAG | ≥ 1
94 | CTGCTCGGCCATAGTCAT | 0.19
95 | CTGTTTTCATTAACTGGC | ≥ 1
96 | CTTTTGCGTCATCTGGTC | ≥ 1
97 | GAGACATCTGATTATAAA | ≥ 1
98 | GAGGAAATTTAATGTCTT | ≥ 1
99 | GATCCTTTATCAAGAGCC | 0.4
100 | GATTATAAATGTGTTTGG | ≥ 1
101 | GCCAGTTTACTCCAGAGA | 0.44
102 | GCCCTGAAAGCAATGATT | 0.34
103 | GCCTCTGCAGTCTGTCTG | ≥ 1
104 | GCGTCATCTGGTCCTCCA | 0.26
105 | GCGTTTATTTGGATCCTT | ≥ 1
106 | GGAAGTATCTTGGCCTCC | ≥ 1
107 | GGAGTATCTACATGAAAT | ≥ 1
108 | GGTTTAAGAGGAGGTACA | ≥ 1
109 | GTAATAGTCTGAGCTGTA | 0.88
110 | GTAGTCCACTGGAGACAT | ≥ 1
111 | GTCCTGGTTGTAGAAAGG | 0.58
112 | GTCTCAGATGTTACTTGA | 0.71
113 | GTCTGCTACAGCCTGGAT | 0.92
114 | GTTGTAGAGGCATCCATC | ≥ 1

Row | Sequence | remaining target (mRNA or protein) (fraction of control)
115 | TAATTTCTTTTGCGTCAT | ≥ 1
116 | TACTCCAGAGAAGAAACT | 0.85
117 | TAGTATCTGTCTCAGATG | 0.7
118 | TCATACATGACAACCCCT | 0.13
119 | TCATTAACTGGCATTTTG | ≥ 1
120 | TCATTTCATACATGACAA | ≥ 1
121 | TCCCCTCTTCTGAACCCA | 0.55
122 | TCTATAACAGTAGTCCAC | ≥ 1
123 | TCTCATGGTCCTGGTTGT | 0.57
124 | TCTGGTCCTCCACCAAGG | 0.26
125 | TCTTCCTCTCCTATATTA | ≥ 1
126 | TCTTCTTGCCTCTGCAGT | ≥ 1
127 | TGTAGAAAGGTAACCTCC | 0.82
128 | TGTCCATTCTTCCCTTTC | ≥ 1
129 | TGTCTCATAATTTCTTTT | ≥ 1
130 | TGTTCGAGGAAATTTAAT | ≥ 1
131 | TGTTCTCTCTATAACAGT | 0.94
132 | TTCCATTAATATTAATTC | ≥ 1
133 | TTCCCTTTCCTCTGGAGT | 0.65
134 | TTGGACTACAATTCATTC | 0.72
135 | TTGGCTTTGGTCGTTCTG | ≥ 1
136 | TTGGTCGTTCTGTTTTCA | ≥ 1
137 | TTTCCTCTGGAGTATCTA | ≥ 1
138 | TTTGCATCTGAAGAGAGT | 0.77
139 | TTTGCCACTGAAAAGTTG | ≥ 1
140 | TTTGTGAAGTTGGACTAC | ≥ 1
